{"source": "patent US9796674B2", "about": "“Benzyl urea derivatives for activating TGF-beta signaling” (THE BOARD OF TRUSTEES OF THE LELAND STANFORD JUNIOR …, priority 2013, dated 2017)", "key": {"GFAP-luc mice": {"test_system": "GFAP-luc mice", "test": "Kainic acid lesion in GFAP-luc mice, bioluminescence", "type": "in vivo, mouse", "settings": "kainic acid 20 mg/kg", "description": "FIGS. 5A-5B show GFAP-luc mice (2-month-old) lesioned with kainic acid (20 mg/kg). Bioluminescence was recorded longitudinally at indicated time points in each mouse. Representative images showing increased bioluminescence signals over the brain after kainic acid injury (left panel) and the reduction by SRI-011381 (381) treatment (right panel) (FIG. 5A). Bioluminescence is expressed as fold induction over baseline, which was measured 1 day before kainic acid administration for each mouse (FIG. 5B). Bars are mean±SEM (n=4-7 mice). The mice were sacrificed 5 days later. Brains were removed, fixed with paraformaldehyde, sectioned and stained with cresyl violet, or immunohistochemical methods. […] Bars are mean±SEM (n=4-7 mice/group) and the asterisk signifies P<0.05 by unpaired t test."}, "FvB wildtype mice": {"test_system": "FvB wildtype mice", "type": "in vivo", "description": "Excitotoxic injury model: Mice are injured with kainic acid and treated with different test compounds at two concentrations each to determine if they can reduce neurodegeneration and/or microglial activation. Wildtype mice on the FVB/N genetic background (8-weeks-old) are typically injured with kainic acid (Tocris, Ellisville, Mo.) dissolved in PBS and injected subcutaneously (s.q., 20 mg/kg). Seizure activity is scored from 0 to 5, with 0 corresponding to no behavioral changes and 5 corresponding to constant rearing and falling. Only kainate-injected mice reaching at least stage 3 are used for the studies. On day 5 following injury, mice are anesthetized, transcardially perfused with 0.9% saline, and brains harvested and dissected. One hemi-brain may be fixed for 24 hours in 4% paraformaldehyde and cryoprotected in 30% sucrose. Serial coronal sections (40 μm) can be cut with a freezing microtome (Leica, Allendale, N.J.) and stored in cryoprotective medium. One set of sections, representing different levels of the hippocampus, is used for the various stains. The other hemi-brain is dissected into hippocampus, cortex, thalamus, brain stem, and cerebellum. In this manner, the ability of test compounds to reduce neurodegeneration in kainate-injected mice can be assayed.\nSRI-011381 is neuroprotective in a model of acute neurodegeneration: To study the potential neuroprotective effect of SRI-011381 in vivo, FvB wildtype mice were pre-treated with compound or vehicle for 3 days before excitotoxic injury was induced with kainic acid (10 mg/kg, SQ). Mice continued to receive daily injections of compound until they were sacrificed at day 5 after kainic acid injury. Brains were removed, fixed with paraformaldehyde, sectioned into […] sections using a cryomicrotome and stained with cresyl violet, or immunohistochemical methods. Sections for analysis of synaptophysin, MAP2, and NeuN were subjected to blinded confocal quantitative analysis of neurodegeneration.\nTo study the potential neuroprotective effect of SRI-011381, FvB wild-type mice were pre-treated with compound or vehicle for 3 days before excitotoxic injury was induced with kainic acid (10 mg/kg). Mice continued to receive daily injections of compound until they were sacrificed at day 5 after kainic acid injury. Kainic acid treatment alone caused a roughly 50% lethality in this experiment (lethality greatly varies in this model and is very difficult to control, but survivors from experiments with greater than 25% lethality typically show significant neurodegeneration in the hippocampus).\nBrains were removed, fixed with paraformaldehyde, sectioned into […] sections using a cryomicrotome and stained with cresyl violet, or immunohistochemical methods. Sections were analyzed for synaptophysin, MAP2, and NeuN by confocal quantitative analysis of neurodegeneration. All observers were completely blinded to the treatment conditions of the mice."}, "[1]": {"test": "PAMPA double sink permeability assay", "type": "in vitro ADME", "settings": "pH 7.4, 6.2, 5.0, read-out: sum of the permeability coefficients (Pe)", "description": "Permeability Assays: PAMPA screens, both for absorption from the gut and through blood brain barrier, were used as a first tier screen for this program. SRI-011381 was evaluated in the double sink assay format and the sum of the permeability coefficients at three pH values (7.4, 6.2, 5.0) was calculated (Pe) to be 781×10^−6 cm/s, which is consistent with an orally available compound.\nPermeability PAMPA: The PAMPA assay was used to predict oral bioavailability of compounds. The PAMPA determines the permeability of compounds across a biological membrane using a synthetic lipid membrane and detection by UV absorbance. […] The PAMPA-BBB assay was performed, to predict permeability to the blood brain barrier, as an aqueous assay and as a co-solvent assay. In this assay the composition of the lipid membrane included brain-derived lipids, mimicking the BBB membrane."}, "[2]": {"test": "Cytotoxicity in VERO cells", "type": "cell-based", "settings": "African green monkey, read-out: LC50 (the source's name)", "description": "In Vitro Cytotoxicity: The cytotoxicity of SRI-011381 was determined in primary rat hepatocytes and in VERO cells.\nCytotoxicity: In vitro cytotoxicity assays are used to estimate the relative toxicity of test compounds, e.g. a set of chemical analogs prior to efficacy screening. To estimate “basal” toxicity, a cell line such as VERO cells are typically used. Additional factors including drug metabolism can alter the relative toxicity of a compound in vivo. Primary cultures from liver (either laboratory species or human) can be used to assess the relative toxicity of compounds where metabolism may be a factor."}, "[3]": {"test_system": "human macrophages differentiated from THP-1 monocytic cell lines", "test": "Fibrillar Aβ clearance by THP-1 macrophages", "type": "cell-based", "settings": "24 h, 2, 5, or 10 μM", "description": "SRI-011381 promotes Aβ clearance in cell culture: TGF-β1 promotes Aβ clearance in a microglia cell line. To test whether SRI-011381 has similar properties, mouse J774A.1 macrophages and human macrophages differentiated from THP-1 monocytic cell lines were treated with fibrillar Aβ in the absence or presence of compound (2, 5, or 10 μM) for 24 h. Conditioned medium was harvested and the remaining Aβ that was not phagocytosed by macrophages was quantified by Aβ ELISA.\nFIGS. 4A and 4B present data from experiments in which human macrophages differentiated from THP-1 monocytic cell lines and mouse J774A.1 macrophages were incubated with fibrillar Aβ in the absence or presence of compound (2 or 5 μM) for 24 h. Conditioned medium was harvested and the remaining Aβ was quantified by Aβ ELISA. The collected medium (FIGS. 4C-4D) was added to N2A-APP-Swe cells (mouse Neuro-2A neuroblastoma cells stably expressing Swedish APP695) and incubated for 24 h. Neurotoxicity was quantified by an MTS Assay.\nMouse J774A.1 macrophages and human macrophages that were differentiated from THP-1 monocytic cell lines were treated with fibrillar Aβ42 in the absence or presence of SRI-011382 or its derivative compounds (2, 5, or 10 μM) for 24 h. Conditioned medium was harvested and the remaining Aβ42 that was not phagocytosed by macrophages was quantified by Aβ42 ELISA kit (Invitrogen). […]"}, "[4]": {"settings": "one third of maximum tolerated dose"}}, "note": "“Also recorded” adds a separate entry of the source. Like-named read-outs stand apart in the source and are kept apart here."}
{"smiles": "O=C(NC1CCCCC1)N(Cc1ccccc1)CC1CCNCC1", "note": "[SRI-011381, 1-Benzyl-3-cyclohexyl-1-(piperidin-4-ylmethyl)urea]", "values": [{"measurement": "bioluminescence signals over the brain after kainic acid injury", "setting": "GFAP-luc mice", "result": "reduction"}, {"measurement": "lethality after kainic acid", "setting": "FvB wildtype mice; 10 mg/kg daily", "result": "significant reduction in lethality"}, {"measurement": "calbindin loss reduced", "setting": "FvB wildtype mice; kainic acid 10 mg/kg, day 5", "result": 30, "unit": "%"}, {"measurement": "neuronal damage reversed or prevented, all neuronal markers", "setting": "FvB wildtype mice; kainic acid 10 mg/kg, day 5", "result": "at least 30%"}, {"measurement": "reduction of CD68 expression", "setting": "FvB wildtype mice; kainic acid 10 mg/kg, day 5", "result": "more than 20%"}, {"measurement": "lethality after kainic acid", "setting": "FvB wildtype mice; mouse, in vivo, 60 mg/kg", "result": "increase in lethality"}, {"measurement": "pathology reduced: Cresyl violet", "setting": "FvB wildtype mice; [4]", "result": 54.0, "unit": "%"}, {"measurement": "pathology reduced: D68", "setting": "FvB wildtype mice; [4]", "result": 22.5, "unit": "%"}, {"measurement": "pathology reduced: MAP-2", "setting": "FvB wildtype mice; [4]", "result": 37.4, "unit": "%"}, {"measurement": "pathology reduced: NeuN", "setting": "FvB wildtype mice; [4]", "result": 36.9, "unit": "%"}, {"measurement": "pathology reduced: Synaptophysin", "setting": "FvB wildtype mice; [4]", "result": 67.5, "unit": "%"}, {"measurement": "neurodegeneration (percentage of rescue)", "setting": "FvB wildtype mice; systemic administration", "result": "reduces neurodegeneration by 6 markers"}, {"measurement": "Papp", "setting": "[1]", "result": 781, "unit": "×10⁻⁶ cm/s"}, {"measurement": "CC50", "setting": "[2]", "result": 167, "unit": "µM"}, {"measurement": "fibrillar Aβ clearance", "setting": "[3]", "result": "promoted fibrillar Aβ clearance; also recorded: promoted fibrillar Aβ42 clearance"}, {"measurement": "fibrillar Aβ clearance", "setting": "[3]; listed as SRI-11381", "result": "promote fibrillar Aβ42 clearance"}]}
